Assay results taken from US9770409B2, “Aerosol formulations of ondansetron and uses thereof” (LUXENA PHARMACEUTICALS, INC., priority 2013, dated 2017).
Values after ≈ are worked out from the molar mass of the structure shown. Values joined by “and” are separate entries in the source; they are usually repeats but may differ in a detail not shown here. Identical values can stand only once. Like-named read-outs stand apart in the source and are kept apart here.

What was measured:
[1] = Particle size distribution of spray dried ondansetron fine powder by Malvern Mastersizer; format: physicochemical; conditions: typical particle size distribution
Method: The Particle Size Distribution of the Ondansetron Fine Powder, prepared by Spray Drying using the above parameters was measured by Malvern Mastersizer (Malvern Instruments, UK) at GEA Process Engineering, Inc., Columbia, Md., USA.

[2] = Solubility of ondansetron in pMDI medium; format: physicochemical; conditions: for solubility at 8 days: organic solvent or mixture, thermodynamic from solid
Method: The solubility of ondansetron was measured in a pMDI medium of HFA 134 as well as a mixture of HFA 134 and ethanol.

[3] = HFA 134a with Ethanol (9:1), 8 days

| Compound | Cumulative % on <10 μm [1] | D10 [1] | D50 [1] | D90 [1] | Mean Size [1] | solubility at 8 days ([2]; HFA 134a (pMDI medium), HFA 134a alone, read-out: Solubility in HFA 134a, Average (RSD)) | solubility at 8 days ([2]; HFA 134a (pMDI medium), HFA 134a alone, read-out: Solubility in HFA 134a, single determinations) | Solubility in HFA 134a, single determinations ([2]; HFA 134a alone, 8 days) | Solubility in HFA 134a as % w/w ([2]; HFA 134a alone, 8 days, from gravity of HFA 134a 1.21 g/mL) | Solubility in HFA 134a with Ethanol (9:1) as % w/w [2, 3] | Solubility in HFA 134a with Ethanol (9:1), single determinations [2, 3] | solubility at 8 days ([2]; HFA 134a with ethanol (9:1) (pMDI medium), HFA 134a with Ethanol (9:1), read-out: Solubility in HFA 134a with Ethanol (9:1), Average (RSD)) | solubility at 8 days ([2]; HFA 134a with ethanol (9:1) (pMDI medium), HFA 134a with Ethanol (9:1), read-out: Solubility in HFA 134a with Ethanol (9:1), single determinations) |
| --- | --- | --- | --- | --- | --- | --- | --- | --- | --- | --- | --- | --- | --- |
| Cc1nccn1CC1CCc2c(c3ccccc3n2C)C1=O (stereo not shown) [Ondansetron Fine Powder, ondansetron] | 99.5% | 3.23 μm | 5.01 μm | 7.22 μm | 4.80 μm | – | – | – | – | – | – | – | – |
| Cc1nccn1CC1CCc2c(c3ccccc3n2C)C1=O (stereo not shown) [ondansetron] | – | – | – | – | – | 37.8 µg/mL (≈ 129 µM) | 34.7 µg/mL (≈ 118 µM) | 35.97 µg/mL and 40.27 µg/mL and 40.26 µg/mL | 0.00312 % w/w | 0.01668 % w/w | 196.85 µg/mL and 215.75 µg/mL and 195.17 µg/mL | 202 µg/mL (≈ 688 µM) | 199 µg/mL (≈ 680 µM) |
